From PMC9669214 (Biochemistry, 2022) come the findings set out here.

The target of the experiment is GacI-PP (Streptomyces glaucescens, UniProt B0B0T9). Kind of experiment: LC-Q-TOF-MS of product V1P. In kind it is biochemical. The conditions noted are these: V1,7PP 1 mM, Tris-HCl 20 mM pH 7.5, 30 °C.

The structures appear in SMILES notation.

Regarding `O=P(O)(O)OCC1=CC(OP(=O)(O)O)C(O)C(O)C1O` (stereo not shown) [compound 8, V1,7PP], the “LC-Q-TOF-MS of product V1P; MESG/PNP initial velocity” value is “The protein was then incubated with V1,7PP and the formation of V1P was confirmed”.
